Source: patent publication US20050136121A1, “Oral peptide delivery system with improved bioavailability” (SHEAR/KERSHMAN LABORATORIES, INC., priority 2003, published 2005)

Assay: Study 2: female adult dogs fed formulations or injected with Humulin, serum glucose level
Format: in vivo
Protocol: Female adult dogs were fed the formulations from Examples 3 to 5. Further dogs were injected with Humulin and given 0.05 mL of 100 U/mL. Before being fed or injected the formulations, the animals fasted overnight. The dogs were fed 4 to 6 hours after dosing.

Substance: Humulin: injected insulin comparator, 0.05 mL of 100 U/mL
- time after dosing at which glucose level began increasing (injected 0.05 mL of 100 U/mL): about 2 hours
- drop in glucose levels (injected 0.05 mL of 100 U/mL, within minutes): 67%
- time at which glucose levels returned to normal levels (injected, after eating): about 12 hours
- glucose levels at hours 6 to 10 (injected, ate dog food at 4 to 6 hours): above the normal levels
